Test results published in ChEMBL document CHEMBL3885881, “DrugMatrix”.

Organism: Rattus norvegicus
Assay: DrugMatrix - Regimen: Daily Repeat
Type: toxicity, organism-based, Sprague-Dawley
Parameters: regimen Daily Repeat, gender Male, age 6-8 weeks
Conditions: in vivo, po, route oral GAVAGE, vehicle 100 % WATER; for ABSOLUTE BASOPHIL / ABSOLUTE EOSINOPHIL / ABSOLUTE LYMPHOCYTE / ABSOLUTE MONOCYTE / ABSOLUTE SEGMENTED NEUTROPHIL / BASOPHIL / EOSINOPHIL / ERYTHROCYTE COUNT / HEMATOCRIT / HEMOGLOBIN / LEUKOCYTE COUNT / LYMPHOCYTE / MEAN CORPUSCULAR HEMOGLOBIN / MEAN CORPUSCULAR HEMOGLOBIN CONCENTRATION / MEAN CORPUSCULAR VOLUME / MONOCYTE / NEUTROPHIL / NUCLEATED RED BLOOD CELLS / PLATELET COUNT: tissue Blood; for ALANINE AMINOTRANSFERASE / ALBUMIN / ALKALINE PHOSPHATASE / ASPARTATE AMINOTRANSFERASE / BLOOD UREA NITROGEN / CARBON DIOXIDE / CHLORIDE / CHOLESTEROL / CREATINE PHOSPHOKINASE / CREATININE / GLUCOSE / LACTATE DEHYDROGENASE / LIPASE / PHOSPHORUS / POTASSIUM / SODIUM / TOTAL BILIRUBIN / TOTAL PROTEIN / URIC ACID: tissue Plasma
[1] = 46 mg/kg, 72 h, dose level High, time 3 day
[2] = 46 mg/kg, 120 h, dose level High, time 5 day
[3] = […], 72 h, dose 4.6 mg/Kg, dose level Low, time 3 day
[4] = […], 120 h, dose 4.6 mg/Kg, dose level Low, time 5 day

## CC(C)NNC(=O)c1ccncc1 [IPRONIAZID]
[1]
  ABSOLUTE BASOPHIL: 0 CELLS/uL
  ABSOLUTE EOSINOPHIL: 0 CELLS/uL
  ABSOLUTE LYMPHOCYTE: 9249.33 CELLS/uL
  ABSOLUTE MONOCYTE: 21.67 CELLS/uL
  ABSOLUTE SEGMENTED NEUTROPHIL: 762.33 CELLS/uL
  BASOPHIL: 0%
  EOSINOPHIL: 0%
  ERYTHROCYTE COUNT: 5.56 x10E6/uL
  HEMATOCRIT: 34.37%
  HEMOGLOBIN: 13.47 G/DL
  LEUKOCYTE COUNT: 10.03 x10E3/uL
  LYMPHOCYTE: 91.33%
  MEAN CORPUSCULAR HEMOGLOBIN: 24.27 pg
  MEAN CORPUSCULAR HEMOGLOBIN CONCENTRATION: 39.17 G/DL
  MEAN CORPUSCULAR VOLUME: 61.87 fL
  MONOCYTE: 0.33%
  NEUTROPHIL: 8.33%
  NUCLEATED RED BLOOD CELLS: 0 /100WBC
  PLATELET COUNT: 1304.67 x10E3/uL
  ALANINE AMINOTRANSFERASE: 37 u/L
  ALBUMIN: 4.23 G/DL
  ALKALINE PHOSPHATASE: 308 u/L
  ASPARTATE AMINOTRANSFERASE: 89 u/L
  BLOOD UREA NITROGEN: 17 mg/dL
  CARBON DIOXIDE: 29 mmol/L
  CHLORIDE: 103 MEQ/L
  CHOLESTEROL: 80.67 mg/dL
  CREATINE PHOSPHOKINASE: 622.67 u/L
  CREATININE: 0.21 mg/dL
  GLUCOSE: 160.67 mg/dL
  LACTATE DEHYDROGENASE: 288.33 u/L
  LIPASE: 11.67 u/L
  PHOSPHORUS: 12.93 mg/dL
  POTASSIUM: 6.22 MEQ/L
  SODIUM: 145.5 MEQ/L
  TOTAL BILIRUBIN: 0.17 mg/dL
  TOTAL PROTEIN: 5.97 G/DL
  URIC ACID: 1.77 mg/dL
[2]
  ABSOLUTE BASOPHIL: 0 CELLS/uL
  ABSOLUTE EOSINOPHIL: 126 CELLS/uL
  ABSOLUTE LYMPHOCYTE: 15175.33 CELLS/uL
  ABSOLUTE MONOCYTE: 93.67 CELLS/uL
  ABSOLUTE SEGMENTED NEUTROPHIL: 271.67 CELLS/uL
  BASOPHIL: 0%
  EOSINOPHIL: 0.67%
  ERYTHROCYTE COUNT: 5.63 x10E6/uL
  HEMATOCRIT: 33.73%
  HEMOGLOBIN: 13.4 G/DL
  LEUKOCYTE COUNT: 15.67 x10E3/uL
  LYMPHOCYTE: 97%
  MEAN CORPUSCULAR HEMOGLOBIN: 23.8 pg
  MEAN CORPUSCULAR HEMOGLOBIN CONCENTRATION: 39.77 G/DL
  MEAN CORPUSCULAR VOLUME: 59.8 fL
  MONOCYTE: 0.67%
  NEUTROPHIL: 1.67%
  NUCLEATED RED BLOOD CELLS: 0 /100WBC
  PLATELET COUNT: 1219.33 x10E3/uL
  ALANINE AMINOTRANSFERASE: 39 u/L
  ALBUMIN: 3.87 G/DL
  ALKALINE PHOSPHATASE: 312.33 u/L
  ASPARTATE AMINOTRANSFERASE: 118.33 u/L
  BLOOD UREA NITROGEN: 18.67 mg/dL
  CARBON DIOXIDE: 22 mmol/L
  CHLORIDE: 106.67 MEQ/L
  CHOLESTEROL: 56 mg/dL
  CREATINE PHOSPHOKINASE: 1266.33 u/L
  CREATININE: 0.24 mg/dL
  GLUCOSE: 163.67 mg/dL
  LACTATE DEHYDROGENASE: 328.67 u/L
  LIPASE: 10 u/L
  PHOSPHORUS: 11.83 mg/dL
  POTASSIUM: 5.65 MEQ/L
  SODIUM: 148.8 MEQ/L
  TOTAL BILIRUBIN: 0.23 mg/dL
  TOTAL PROTEIN: 5.53 G/DL
  URIC ACID: 1.8 mg/dL
[3]
  ABSOLUTE BASOPHIL: 0 CELLS/uL
  ABSOLUTE EOSINOPHIL: 0 CELLS/uL
  ABSOLUTE LYMPHOCYTE: 11668 CELLS/uL
  ABSOLUTE MONOCYTE: 117.67 CELLS/uL
  ABSOLUTE SEGMENTED NEUTROPHIL: 1081 CELLS/uL
  BASOPHIL: 0%
  EOSINOPHIL: 0%
  ERYTHROCYTE COUNT: 4.84 x10E6/uL
  HEMATOCRIT: 31.5%
  HEMOGLOBIN: 12.83 G/DL
  LEUKOCYTE COUNT: 12.87 x10E3/uL
  LYMPHOCYTE: 90.33%
  MEAN CORPUSCULAR HEMOGLOBIN: 26.5 pg
  MEAN CORPUSCULAR HEMOGLOBIN CONCENTRATION: 40.77 G/DL
  MEAN CORPUSCULAR VOLUME: 65 fL
  MONOCYTE: 1%
  NEUTROPHIL: 8.67%
  NUCLEATED RED BLOOD CELLS: 0 /100WBC
  PLATELET COUNT: 1111.67 x10E3/uL
  ALANINE AMINOTRANSFERASE: 56 u/L
  ALBUMIN: 4.23 G/DL
  ALKALINE PHOSPHATASE: 342.67 u/L
  ASPARTATE AMINOTRANSFERASE: 108 u/L
  BLOOD UREA NITROGEN: 13.67 mg/dL
  CARBON DIOXIDE: 26.33 mmol/L
  CHLORIDE: 105 MEQ/L
  CHOLESTEROL: 80.67 mg/dL
  CREATINE PHOSPHOKINASE: 777.33 u/L
  CREATININE: 0.24 mg/dL
  GLUCOSE: 165.67 mg/dL
  LACTATE DEHYDROGENASE: 493.33 u/L
  LIPASE: 8.33 u/L
  PHOSPHORUS: 13.3 mg/dL
  POTASSIUM: 6.06 MEQ/L
  SODIUM: 144.47 MEQ/L
  TOTAL BILIRUBIN: 0.17 mg/dL
  TOTAL PROTEIN: 5.67 G/DL
  URIC ACID: 1.5 mg/dL
[4]
  ABSOLUTE BASOPHIL: 0 CELLS/uL
  ABSOLUTE EOSINOPHIL: 175.33 CELLS/uL
  ABSOLUTE LYMPHOCYTE: 14127.33 CELLS/uL
  ABSOLUTE MONOCYTE: 0 CELLS/uL
  ABSOLUTE SEGMENTED NEUTROPHIL: 1364 CELLS/uL
  BASOPHIL: 0%
  EOSINOPHIL: 1%
  ERYTHROCYTE COUNT: 5.43 x10E6/uL
  HEMATOCRIT: 34.73%
  HEMOGLOBIN: 13.6 G/DL
  LEUKOCYTE COUNT: 15.67 x10E3/uL
  LYMPHOCYTE: 90.33%
  MEAN CORPUSCULAR HEMOGLOBIN: 25.07 pg
  MEAN CORPUSCULAR HEMOGLOBIN CONCENTRATION: 39.17 G/DL
  MEAN CORPUSCULAR VOLUME: 63.97 fL
  MONOCYTE: 0%
  NEUTROPHIL: 8.67%
  NUCLEATED RED BLOOD CELLS: 0 /100WBC
  PLATELET COUNT: 1364.67 x10E3/uL
  ALANINE AMINOTRANSFERASE: 58.33 u/L
  ALBUMIN: 4.33 G/DL
  ALKALINE PHOSPHATASE: 411.67 u/L
  ASPARTATE AMINOTRANSFERASE: 88.33 u/L
  BLOOD UREA NITROGEN: 18.33 mg/dL
  CARBON DIOXIDE: 27.33 mmol/L
  CHLORIDE: 103 MEQ/L
  CHOLESTEROL: 72 mg/dL
  CREATINE PHOSPHOKINASE: 231.67 u/L
  CREATININE: 0.23 mg/dL
  GLUCOSE: 179 mg/dL
  LACTATE DEHYDROGENASE: 197.33 u/L
  LIPASE: 11 u/L
  PHOSPHORUS: 14.8 mg/dL
  POTASSIUM: 6.06 MEQ/L
  SODIUM: 146.8 MEQ/L
  TOTAL BILIRUBIN: 0.2 mg/dL
  TOTAL PROTEIN: 6.07 G/DL
  URIC ACID: 2.07 mg/dL
